The text below walks through data of patent US10189843B2, “Fused pyrazole derivative having autotaxin inhibitory activity” (The University of Tokyo, priority 2014, dated 2019).

One may read the pIC50 as the IC50 on a negative log10 scale, so that one unit is a factor of ten.

SMILES strings stand for the structures. pIC50: −log10 of the molar value. Bounds are passed on as bounds.

The test has as its target T1, Human autotaxin enzyme (Homo sapiens, UniProt Q13822).
T1 construct: purchased R&D System
The test is described as follows: Evaluation of autotaxin inhibitor, Method C (18:0 Lyso PC substrate, choline assay, Resorufin fluorescence). The test is classed as biochemical. Particulars: Method C (Test Example 3), read-out: Inhibitory activity (enzyme inhibitory activity, IC50). A digest of the protocol:
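Recombinant human autotaxin with compound and 200 μM 18:0 Lyso PC (stock) in Tris-HCl pH 7.5, NaCl, MgCl2, Triton X-100, 2 h RT. Released choline detected via choline oxidase/peroxidase/Amplex-type reagent, 20 min, resorufin fluorescence 531/598 nm; % inhibition vs no-compound and no-enzyme controls, concentration-response curve.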
On to `CCCCC1CN(CC(=O)NCC(N)=O)C(=O)c2cc(-c3ccc(Cl)cc3)nn21` (stereo not drawn) [Compound I-0215], for which the pIC50 was 6.00 to 7.00. Then `CCCCCC1CN(CC(=O)N2CCC(C(=O)NC3(C#N)CC3)CC2)C(=O)c2cc(-c3ccc(Cl)cc3)nn21` (stereo not drawn) [Compound I-0295], with 7.00 to 8.00; and `CCCCCC1CN(Cc2ccc(C#N)cc2)C(=O)c2cc(C(=O)N3CCC(C#N)CC3)nn21` (stereo not drawn) [Compound I-0180], with at most 6.00; and `CCCCC1CN(CC(=O)N(C)CC#N)C(=O)c2cc(-c3ccc(Cl)cc3)nn21` (stereo not drawn) [Compound I-0208], with 7.00 to 8.00. For the compound `CCCCCC1CN(CC(=O)N2CCCCC2)C(=O)c2cc(-c3ccc(Cl)cc3)nn21` (stereo not drawn) [Compound I-0083], the pIC50 is 6.00 to 7.00.

Consider `CCCCC1CN(Cc2ccc(C#N)cc2)C(=O)c2cc(-c3ccc(Cl)cc3C=O)nn21` (stereo not drawn) [Compound I-0204], for which the pIC50 was 7.00 to 8.00.

For the compound `C[C@H]1CN(CC(=O)NCC(=O)O)C(=O)c2cc(-c3ccc(Cl)cc3)nn21` [Compound I-0162], the pIC50 is at most 6.00. The figure for `CCCCCC1CN(CC(=O)N2CCC(N(C)C)CC2)C(=O)c2cc(-c3ccc(Cl)cc3)nn21` (stereo not drawn) [Compound I-0111] is at most 6.00; for `CC(=O)Nc1cc(C#N)ccc1-c1cc2n(n1)[C@@H](C)CN(CC(=O)N(C)CCC#N)C2=O` [Compound I-0341] it is 7.00 to 8.00. The figure for `CCCCCC1CN(CC(=O)N2CCCCC2CC(=O)O)C(=O)c2cc(-c3ccc(Cl)cc3)nn21` (stereo not drawn) [Compound I-0068] is above 8.00; for `CCCCCC1CN(CC(=O)N2CCC(O)C2)C(=O)c2cc(-c3ccc(Cl)cc3)nn21` (stereo not drawn) [Compound I-0035] it is 6.00 to 7.00; for `CCCCCC1CN(CC(=O)NCc2ccccc2C(=O)O)C(=O)c2cc(-c3ccc(Cl)cc3)nn21` (stereo not drawn) [Compound I-0119] it is 7.00 to 8.00. The figure for `N#Cc1ccc(CN2CC(COCC(F)(F)C(F)F)n3nc(-c4ccc(Cl)cc4)cc3C2=O)cc1` (stereo not drawn) [Compound I-0190] is 7.00 to 8.00; for `CCCCC1CN(C2CCN(CC#N)C2=O)C(=O)c2cc(-c3ccc(Cl)cc3)nn21` (stereo not drawn) [Compound I-0292] it is 7.00 to 8.00; for `CCCCC1CN(Cc2ccc(C#N)cc2)C(=O)c2cc(-c3ccc(Cl)cc3CNC)nn21` (stereo not drawn) [Compound I-0278] it is at most 6.00. As for `CCCCCC1CN(CC(=O)O)C(=O)c2cc(-c3ccc(Cl)cc3)nn21` (stereo not drawn) [Compound I-0003], the pIC50 was at most 6.00.

For the compound `CCCCC1CN(Cc2cccc(C(=O)O)c2)C(=O)c2cc(-c3ccc(Cl)cc3)nn21` (stereo not drawn) [Compound I-0150], the pIC50 was above 8.00.

For `O=C1NCC(COCC(F)(F)C(F)F)n2nc(-c3ccc(Cl)cc3)cc21` (stereo not drawn) [Compound I-0196], the pIC50 is 6.00 to 7.00. Then `C[C@H]1CN(Cc2ccc(C#N)cc2)C(=O)c2cc(-c3ccc(Cl)cc3NC(=O)C3CC3)nn21` [Compound I-0322], with 7.00 to 8.00; and `CCCCC1CN(Cc2ncn(C)n2)C(=O)c2cc(-c3ccc(Cl)cc3)nn21` (stereo not drawn) [Compound I-0259], with 6.00 to 7.00.

Regarding `CCCCC1CN(Cc2cncn2C)C(=O)c2cc(-c3ccc(Cl)cc3)nn21` (stereo not drawn) [Compound I-0258], the pIC50 was 6.00 to 7.00. The figure for `CCNc1cc(Cl)ccc1-c1cc2n(n1)[C@@H](C)CN(Cc1ccc(C#N)cc1)C2=O` [Compound I-0328] is 6.00 to 7.00; for `CCCCC1CN(Cc2ccc(C#N)cc2)C(=O)c2cc(-c3ccc(C(F)(F)F)cc3)nn21` (stereo not drawn) [Compound I-0191] it is 6.00 to 7.00; for `CCCCC1CN(C2CCN(CC(F)(F)F)C2=O)C(=O)c2cc(-c3ccc(Cl)cc3)nn21` (stereo not drawn) [Compound I-0264] it is 7.00 to 8.00. Turning to `N#Cc1ccc(CN2CC(COCc3ccccc3)n3nc(-c4ccc(Cl)cc4)cc3C2=O)cc1` (stereo not drawn) [Compound I-0177], the pIC50 is at most 6.00.

As to `CCCCCC1CN(Cc2cc(C)cc(C(=O)OC)c2)C(=O)c2cc(-c3ccc(Cl)cc3)nn21` (stereo not drawn) [Compound I-0126], the pIC50 was at most 6.00. The figure for `CCCCCC1CN(CC(=O)Nc2cccc(C(=O)O)c2)C(=O)c2cc(-c3ccc(Cl)cc3)nn21` (stereo not drawn) [Compound I-0049] is 7.00 to 8.00. As for `CCCCC1CN(CN)C(=O)c2cc(-c3ccc(Cl)cc3)nn21` (stereo not drawn) [Compound I-0288], the pIC50 is at most 6.00. Then `CCCCCC1CN(CC(=O)N2CCCCC2C(=O)O)C(=O)c2cc(-c3ccc(Cl)cc3)nn21` (stereo not drawn) [Compound I-0052], with above 8.00; and `CCCCC1CN(CC(=O)N2[C@H](C)COC[C@@H]2C)C(=O)c2cc(-c3ccc(Cl)cc3)nn21` (stereo partly drawn) [Compound I-0223], with 6.00 to 7.00. Then `CCCCCC1CN(CC(=O)N2CCCCC2c2ccccc2)C(=O)c2cc(-c3ccc(Cl)cc3)nn21` (stereo not drawn) [Compound I-0105], with 6.00 to 7.00. Regarding `CCCCC1CN(Cc2cccnc2)C(=O)c2cc(-c3ccc(Cl)cc3)nn21` (stereo not drawn) [Compound I-0255], the pIC50 is 7.00 to 8.00. Then `CCCCCC1CN(Cc2ccc(CC(=O)O)cc2)C(=O)c2cc(-c3ccc(Cl)cc3)nn21` (stereo not drawn) [Compound I-0124], with above 8.00; and `CCCCCC1CN(Cc2cc(C)cc(C(=O)O)c2)C(=O)c2cc(-c3ccc(Cl)cc3)nn21` (stereo not drawn) [Compound I-0122], with 7.00 to 8.00; and `CCCCCC1CN(CC(=O)NCCCCCCC(=O)O)C(=O)c2cc(-c3ccc(Cl)cc3)nn21` (stereo not drawn) [Compound I-0057], with 6.00 to 7.00. Consider `CCCCC1CN(CC2CNC(=O)O2)C(=O)c2cc(-c3ccc(Cl)cc3)nn21` (stereo not drawn) [Compound I-0266], for which the pIC50 was 7.00 to 8.00. Then `CCCCCC1CN(Cc2cccc(C(=O)O)c2)C(=O)c2cc(-c3ccc(Cl)cc3)nn21` (stereo not drawn) [Compound I-0148], with above 8.00; and `CCCCNC(=O)CN1C[C@H](C)n2nc(-c3ccc(Cl)cc3)cc2C1=O` [Compound I-0153], with at most 6.00.

In the case of `CCCCC1CN(Cc2ccc(C#N)cc2)C(=O)c2cc(C3=CCC(C(F)(F)F)CC3)nn21` (stereo not drawn) [Compound I-0276], the negative-log IC50 (pIC50) was 6.00 to 7.00.

`CCCCCC1CN(CC(=O)N2CCCCCC2)C(=O)c2cc(-c3ccc(Cl)cc3)nn21` (stereo not drawn) [Compound I-0098]: the pIC50 was 6.00 to 7.00.

`CNC(=O)Nc1cc(Cl)ccc1-c1cc2n(n1)[C@@H](C)CN(Cc1ccc(C#N)cc1)C2=O` [Compound I-0342]: the pIC50 is 6.00 to 7.00. Then `CC(=O)Nc1cc(C#N)ccc1-c1cc2n(n1)[C@@H](C)CN(C1CCN(CC(F)(F)F)C1=O)C2=O` (stereo partly drawn) [Compound I-0367], with 7.00 to 8.00; and `CC(=O)Nc1cc(OC(F)(F)F)ccc1-c1cc2n(n1)[C@@H](C)CN(C[C@H]1CNC(=O)O1)C2=O` [Compound I-0339], with above 8.00; and `CCCCC1CN(CC(=O)N2CCO[C@H](C)C2)C(=O)c2cc(-c3ccc(Cl)cc3)nn21` (stereo partly drawn) [Compound I-0240], with 6.00 to 7.00. The figure for `CCCCCC1CN(CC(=O)N2CCCC2C(=O)O)C(=O)c2cc(-c3ccc(Cl)cc3)nn21` (stereo not drawn) [Compound I-0065] is 7.00 to 8.00. Then `CCOC(=O)C1CCN(C(=O)CN2C(=O)c3cc(-c4ccc(Cl)cc4)nn3[C@@H]3CCC[C@@H]32)CC1` [Compound I-0011], with at most 6.00; and `CCCCC1CN(Cc2ccc(C#N)cc2)C(=O)c2cc(-c3ccc(Cl)cc3CO)nn21` (stereo not drawn) [Compound I-0207], with 7.00 to 8.00. For `N#Cc1ccc(CN2CC(CC(F)(F)F)n3nc(-c4c(C#N)cc(Cl)cc4CO)cc3C2=O)cc1` (stereo not drawn) [Compound I-0371], the pIC50 is 6.00 to 7.00. Then `CC(=O)NC1=C(c2cc3n(n2)[C@@H](C)CN(Cc2ccc(C#N)cc2)C3=O)C(=O)CC(C(F)(F)F)C1` (stereo partly drawn) [Compound I-0368], with 7.00 to 8.00; and `CCCCCC1CN(CC(=O)N2CCC[C@@H]2C)C(=O)c2cc(-c3ccc(Cl)cc3)nn21` (stereo partly drawn) [Compound I-0075], with 7.00 to 8.00; and `CCCOCC1CN(CC(=O)O)C(=O)c2cc(-c3ccc(Cl)cc3)nn21` (stereo not drawn) [Compound I-0253], with at most 6.00. On to `CCCCCC1CN(CC(=O)N2CCC(=O)CC2)C(=O)c2cc(-c3ccc(Cl)cc3)nn21` (stereo not drawn) [Compound I-0113], for which the pIC50 was 7.00 to 8.00. Consider `C[C@H]1CN(Cc2ccc(C#N)cc2)C(=O)c2cc(-c3c(Br)cc(Cl)cc3CO)nn21` [Compound I-0361], for which the pIC50 was 6.00 to 7.00. Then `CCCCCC1CN(CC(=O)N2CCCC(c3ccccc3)C2)C(=O)c2cc(-c3ccc(Cl)cc3)nn21` (stereo not drawn) [Compound I-0106], with 6.00 to 7.00; and `CCCCCC1CN(CC(=O)N2CCC(C(=O)O)C2)C(=O)c2cc(-c3ccc(Cl)cc3)nn21` (stereo not drawn) [Compound I-0066], with 7.00 to 8.00; and `CCCCCC1CN(CC(=O)OCC)C(=O)c2cc(-c3ccc(Cl)cc3)nn21` (stereo not drawn) [Compound I-0002], with 7.00 to 8.00. On to `CCCCC1CN(CC(=O)NCCC(=O)N(C)C)C(=O)c2cc(-c3ccc(Cl)cc3)nn21` (stereo not drawn) [Compound I-0225], for which the pIC50 was 6.00 to 7.00.

Take `CCCCC1CN(CC(=O)NCC(O)C(F)(F)F)C(=O)c2cc(-c3ccc(Cl)cc3)nn21` (stereo not drawn) [Compound I-0216]: the pIC50 was 6.00 to 7.00. Take `CCOC(=O)CN1CC(Cc2ccccc2)n2nc(-c3ccc(Cl)cc3)cc2C1=O` (stereo not drawn) [Compound I-0025]: the pIC50 is 6.00 to 7.00.

On to `CCCCC1CN(CC(=O)NCCC#N)C(=O)c2cc(-c3ccc(Cl)cc3)nn21` (stereo not drawn) [Compound I-0230], for which the pIC50 is 7.00 to 8.00. As to `CCOC(=O)CN1C(=O)c2cc(-c3ccc(Cl)cc3)nn2[C@@H]2CCC[C@@H]21` [Compound I-0010], the pIC50 is at most 6.00. `CCCCCC1CN(CC(=O)Nc2ccccn2)C(=O)c2cc(-c3ccc(Cl)cc3)nn21` (stereo not drawn) [Compound I-0073]: the pIC50 was at most 6.00. The figure for `CC(=O)Nc1cc(C#N)ccc1-c1cc2n(n1)[C@@H](C)CN(Cc1ccc(C#N)cc1)C2=O` [Compound I-0335] is above 8.00; for `CCCCC1CN(C(C(C)=O)c2ccccc2)C(=O)c2cc(-c3ccc(Cl)cc3)nn21` (stereo not drawn) [Compound I-0262] it is at most 6.00. The figure for `CCCCC1CN(C2COC2)C(=O)c2cc(-c3ccc(Cl)cc3)nn21` (stereo not drawn) [Compound I-0274] is 6.00 to 7.00.

For `CCCCC1CN(CC(=O)NC2(C#N)CC2)C(=O)c2cc(-c3ccc(Cl)cc3)nn21` (stereo not drawn) [Compound I-0187], the pIC50 is 6.00 to 7.00.
